Measurements from the supplement of paper PMC10307832.

Assays:
Assay in all cases: relative viability (nuclei count vs DMSO), 5 days (fraction); higher = more cells survive
[1] = compound: O=C(c1cc(Cc2n[nH]c(=O)c3ccccc23)ccc1F)N1CCN(C(=O)C2CC2)CC1 [Olaparib] + C[C@@H](Oc1cc(-c2cnn(C3CCNCC3)c2)cnc1N)c1c(Cl)ccc(F)c1Cl [Crizotinib] (partner 1 µM)
Procedure, shortened: (§1)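 Each reported value is a median over duplicate plates. It expresses relative viability: treated-well nuclei count divided by vehicle-well nuclei count. Lung cancer cell lines in 1536-well plates were dosed by pin tool a day after seeding, alone with one drug or with a fixed anchor-drug dose plus five library-drug doses (not always all listed) in √10 steps, and nuclei were counted after 5 days.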

[2] = compound: O=C(c1cc(Cc2n[nH]c(=O)c3ccccc23)ccc1F)N1CCN(C(=O)C2CC2)CC1 [Olaparib] + C[C@]1(O)C[C@@H](c2nc(-c3ccc4ccc(-c5ccccc5)nc4c3)c3c(N)nccn32)C1 [Linsitinib] (partner 1 µM)
Procedure, shortened: as §1

[3] = compound: CC(C)C[C@H](NC(=O)[C@H](CCc1ccccc1)NC(=O)CN1CCOCC1)C(=O)N[C@@H](Cc1ccccc1)C(=O)N[C@@H](CC(C)C)C(=O)[C@@]1(C)CO1 [Carfilzomib] + C[C@@H](Oc1cc(-c2cnn(C3CCNCC3)c2)cnc1N)c1c(Cl)ccc(F)c1Cl [Crizotinib] (partner 1 µM)
Procedure, shortened: as §1

[4] = compound: C[C@@H](Oc1cc(-c2cnn(C3CCNCC3)c2)cnc1N)c1c(Cl)ccc(F)c1Cl [Crizotinib] + NC(=O)Nc1cc(-c2cccc(F)c2)sc1C(=O)N[C@H]1CCCNC1 [AZD7762] (partner 0.2 µM)
Procedure, shortened: as §1

Row | Cell Line | relative viability ([1]; first compound 0.08 µM) | relative viability ([1]; first compound 0.253 µM) | relative viability ([1]; first compound 2.53 µM) | relative viability ([1]; first compound 8 µM) | relative viability ([2]; first compound 0.08 µM) | relative viability ([2]; first compound 0.253 µM) | relative viability ([2]; first compound 2.53 µM) | relative viability ([2]; first compound 8 µM) | relative viability ([3]; first compound 0.001 µM) | relative viability ([3]; first compound 0.003162 µM) | relative viability ([3]; first compound 0.01 µM) | relative viability ([3]; first compound 0.03162 µM) | relative viability ([3]; first compound 0.1 µM) | relative viability ([4]; first compound 0.01 µM) | relative viability ([4]; first compound 0.03162 µM) | relative viability ([4]; first compound 0.1 µM) | relative viability ([4]; first compound 0.3162 µM) | relative viability ([4]; first compound 1 µM)
1 | EBC-1 | 0.206 | 0.178 | 0.203 | 0.186 | 1.07 | 0.824 | 0.848 | 0.751 | 0.212 | 0.18 | 0.183 | 0.131 | 0.111 | – | – | – | – | –
2 | EKVX | 1.13 | 0.831 | 1.08 | 0.98 | 1.38 | 0.91 | 1.01 | 1.06 | 0.936 | 0.819 | 0.941 | 0.887 | 0.348 | 0.67 | 0.742 | 0.647 | 0.685 | 0.726
3 | EMC-BAC-2 | 0.767 | 0.727 | 0.638 | 0.603 | 0.945 | 0.792 | 0.85 | 0.621 | 0.779 | 0.896 | 0.928 | 0.661 | 0.229 | 1.07 | 1.1 | 1.05 | – | 1.08
4 | EPLC-272H | 1.06 | 0.751 | 1.07 | 0.864 | 1.25 | 1.11 | 1.21 | 1.03 | 0.441 | 1.07 | 0.811 | 0.11 | 0.0759 | 0.209 | 0.19 | 0.263 | – | 0.35
5 | H3255 | 0.901 | 0.913 | 0.885 | 0.814 | 1.04 | 0.912 | 0.932 | 0.825 | 0.962 | 1.04 | 1.07 | 0.761 | 0.186 | 0.833 | 0.88 | 0.819 | – | 0.923
6 | HARA | 1.04 | 0.93 | 1.08 | 0.803 | 1.07 | 0.829 | 1.04 | 0.792 | 1.05 | 1.06 | 1.12 | 0.0563 | 0.0555 | 0.216 | 0.274 | 0.679 | 0.382 | 0.516
7 | HCC-15 | 0.96 | 0.75 | 0.851 | 0.69 | 0.927 | 0.828 | 0.836 | 0.768 | 0.765 | 0.85 | 0.844 | 0.545 | 0.185 | 1.07 | 0.721 | 1.2 | – | 1.14
8 | HCC-44 | 0.914 | 0.729 | 0.841 | 0.825 | 0.654 | 0.562 | 0.713 | 0.682 | 0.811 | 0.824 | 0.866 | 0.614 | 0.149 | 0.971 | 0.997 | 1.04 | 0.936 | 1.02
9 | HCC-78 | 0.395 | 0.356 | 0.396 | 0.368 | 0.732 | 0.456 | 0.533 | 0.473 | 0.323 | 0.383 | 0.351 | 0.345 | 0.144 | 0.657 | 0.686 | 0.618 | 0.572 | 0.487
